{"source": "patent EP0980241B1", "about": "(Pfizer Products Inc., priority 1997, dated 1999)", "key": {"[1]": {"experiment": "Dilution of PEG-400 or polysorbate-80 solution of sertraline base into 0.9% NaCl (precipitation test)", "type": "physicochemical", "details": "for Observed Concentration after Dilution in Saline, after 15 min / Observed Concentration after Dilution in Saline, after 2 hr: 1 ml into 15 ml 0.9% NaCl pH 4.2", "protocol": "One ml of this test solution was added to 15 ml normal saline (0.9% NaCl, pH 4.2), and was stirred vigorously. […]"}, "[2]": {"experiment": "Precipitation studies: sertraline base solution in vehicle added to 0.1 N HCl or phosphate buffered saline pH 5.8", "type": "physicochemical", "method": "Solution (a) is a simulated gastric fluid, and solution (b) is a simulated intestinal fluid.\nPEG-400 is miscible with aqueous media, while Capmul® -MCM and safflower oil are not. One milliliter of the test solution was added to 10 mL of (a) 0.1 N HCl solution and (b) phosphate buffered saline (PBS) pH 5.8 and was stirred vigorously.\n• Mobile phase: per liter of mobile phase: 270 mL of tetrahydrofuran, 230 mL of methanol and 400 mL of buffer. The buffer consisted of 25 mM triethylamine phosphate. It was prepared by adding 1.7 mL of phosphoric acid and 3.5 mL of tirethylamine to 1 liter of water."}, "[3]": {"experiment": "not given", "remark": "listed apart in the source"}, "[4]": {"details": "in vivo"}, "[5]": {"details": "known oral immediate-release dosage forms; cited from earlier work"}, "[6]": {"experiment": "Chloride-induced gelling of saturated aqueous sertraline salt solutions", "type": "physicochemical"}, "[7]": {"details": "PEG-400, 50 mgA/ml in vehicle, expected 3.1"}, "[8]": {"details": "PEG-400, 100 mgA/ml in vehicle, expected 6.25"}, "[9]": {"details": "Polysorbate-80, 50 mgA/ml in vehicle, expected 3.1"}, "[10]": {"details": "Polysorbate-80, 100 mgA/ml in vehicle, expected 6.25"}}, "note": "Counter-ions that a name gives are not always drawn.", "data": [{"molecule": "CN[C@H]1CC[C@@H](c2ccc(Cl)c(Cl)c2)c2ccccc21", "note": "[Free base, sertraline free base]", "values": [{"measurement": "Observed Concentration after Dilution in Saline, after 15 min", "setting": "[1]; [7]", "value": 0.9, "unit": "mgA/ml"}, {"measurement": "Observed Concentration after Dilution in Saline, after 2 hr", "setting": "[1]; [7]", "value": 2.1, "unit": "mgA/ml"}, {"measurement": "Observed Concentration after Dilution in Saline, after 15 min", "setting": "[1]; [8]", "value": 0.7, "unit": "mgA/ml"}, {"measurement": "Observed Concentration after Dilution in Saline, after 2 hr", "setting": "[1]; [8]", "value": 1.8, "unit": "mgA/ml"}, {"measurement": "Precipitation upon addition to a NaCl solution", "setting": "[1]; PEG-400 solution", "value": "a portion of the sertraline precipitates"}, {"measurement": "Observed Concentration after Dilution in Saline, after 15 min", "setting": "[1]; [9]", "value": 3.1, "unit": "mgA/ml"}, {"measurement": "Observed Concentration after Dilution in Saline, after 2 hr", "setting": "[1]; [9]", "value": 3.1, "unit": "mgA/ml"}, {"measurement": "Observed Concentration after Dilution in Saline, after 15 min", "setting": "[1]; [10]", "value": 6.25, "unit": "mgA/ml"}, {"measurement": "Observed Concentration after Dilution in Saline, after 2 hr", "setting": "[1]; [10]", "value": 6.25, "unit": "mgA/ml"}, {"measurement": "Precipitation upon addition to a NaCl solution", "setting": "[1]; Polysorbate-80 solution", "value": "no precipitation occurs"}, {"measurement": "Concentration of sertraline in non-aqueous layer", "setting": "[2]; Capmul MCM 50 mgA/mL, 1 mL into 10 mL 0.1 N HCl, 15 minutes", "value": 44, "unit": "mgA/ mL"}, {"measurement": "Concentration of sertraline in aqueous layer", "setting": "[2]; Capmul MCM 50 mgA/mL, 1 mL into 10 mL 0.1 N HCl, 15 minutes, expected 5.00", "value": 0.38, "unit": "mgA/ mL"}, {"measurement": "Concentration of sertraline in non-aqueous layer", "setting": "[2]; Capmul MCM 50 mgA/mL, 1 mL into 10 mL 0.1 N HCl, 120 minutes", "value": 44.2, "unit": "mgA/ mL"}, {"measurement": "Concentration of sertraline in aqueous layer", "setting": "[2]; Capmul MCM 50 mgA/mL, 1 mL into 10 mL 0.1 N HCl, 120 minutes, expected 5.00", "value": 0.31, "unit": "mgA/ mL"}, {"measurement": "Concentration of sertraline in non-aqueous layer", "setting": "[2]; Capmul MCM 50 mgA/mL, 1 mL into 10 mL Phosphate buffered saline pH 5.8, 15 minutes", "value": 48, "unit": "mgA/ mL"}, {"measurement": "Concentration of sertraline in aqueous layer", "setting": "[2]; Capmul MCM 50 mgA/mL, 1 mL into 10 mL Phosphate buffered saline pH 5.8, 15 minutes, expected 5.00", "value": 0.18, "unit": "mgA/ mL"}, {"measurement": "Concentration of sertraline in non-aqueous layer", "setting": "[2]; Capmul MCM 50 mgA/mL, 1 mL into 10 mL Phosphate buffered saline pH 5.8, 120 minutes", "value": 48.6, "unit": "mgA/ mL"}, {"measurement": "Concentration of sertraline in aqueous layer", "setting": "[2]; Capmul MCM 50 mgA/mL, 1 mL into 10 mL Phosphate buffered saline pH 5.8, 120 minutes, expected 5.00", "value": 0.16, "unit": "mgA/ mL"}, {"measurement": "precipitation of sertraline", "setting": "[2]; Capmul-MCM vehicle", "value": "essentially no precipitation"}, {"measurement": "portion of sertraline that remains in solution", "setting": "[2]; Capmul-MCM vehicle, 0.1 N HCl or phosphate buffered saline", "value": "> 95 % of added amount"}, {"measurement": "Concentration of sertraline in aqueous layer", "setting": "[2]; PEG 400 50 mgA/mL, 1 mL into 10 mL 0.1 N HCl, 15 minutes, expected 4.55", "value": 0.6, "unit": "mgA/ mL"}, {"measurement": "Concentration of sertraline in aqueous layer", "setting": "[2]; PEG 400 50 mgA/mL, 1 mL into 10 mL 0.1 N HCl, 120 minutes, expected 4.55", "value": 0.35, "unit": "mgA/ mL"}, {"measurement": "Concentration of sertraline in aqueous layer", "setting": "[2]; PEG 400 50 mgA/mL, 1 mL into 10 mL Phosphate buffered saline pH 5.8, 15 minutes, expected 4.55", "value": 0.16, "unit": "mgA/ mL"}, {"measurement": "Concentration of sertraline in aqueous layer", "setting": "[2]; PEG 400 50 mgA/mL, 1 mL into 10 mL Phosphate buffered saline pH 5.8, 120 minutes, expected 4.55", "value": 0.12, "unit": "mgA/ mL"}, {"measurement": "precipitation of sertraline", "setting": "[2]; PEG 400 solution into either 0.1 N HCl or phosphate buffered saline", "value": "precipitation of a large proportion of sertraline"}, {"measurement": "Concentration of sertraline in non-aqueous layer", "setting": "[2]; Safflower oil 50 mgA/mL, 1 mL into 10 mL 0.1 N HCl, 15 minutes", "value": 4.8, "unit": "mgA/ mL"}, {"measurement": "Concentration of sertraline in aqueous layer", "setting": "[2]; Safflower oil 50 mgA/mL, 1 mL into 10 mL 0.1 N HCl, 15 minutes, expected 5.00", "value": 0.48, "unit": "mgA/ mL"}, {"measurement": "Concentration of sertraline in non-aqueous layer", "setting": "[2]; Safflower oil 50 mgA/mL, 1 mL into 10 mL 0.1 N HCl, 120 minutes", "value": 3.2, "unit": "mgA/ mL"}, {"measurement": "Concentration of sertraline in aqueous layer", "setting": "[2]; Safflower oil 50 mgA/mL, 1 mL into 10 mL 0.1 N HCl, 120 minutes, expected 5.00", "value": 0.48, "unit": "mgA/ mL"}, {"measurement": "Concentration of sertraline in non-aqueous layer", "setting": "[2]; Safflower oil 50 mgA/mL, 1 mL into 10 mL Phosphate buffered saline pH 5.8, 15 minutes", "value": 45, "unit": "mgA/ mL"}, {"measurement": "Concentration of sertraline in aqueous layer", "setting": "[2]; Safflower oil 50 mgA/mL, 1 mL into 10 mL Phosphate buffered saline pH 5.8, 15 minutes, expected 5.00", "value": 0.19, "unit": "mgA/ mL"}, {"measurement": "Concentration of sertraline in non-aqueous layer", "setting": "[2]; Safflower oil 50 mgA/mL, 1 mL into 10 mL Phosphate buffered saline pH 5.8, 120 minutes", "value": 44.6, "unit": "mgA/ mL"}, {"measurement": "Concentration of sertraline in aqueous layer", "setting": "[2]; Safflower oil 50 mgA/mL, 1 mL into 10 mL Phosphate buffered saline pH 5.8, 120 minutes, expected 5.00", "value": 0.19, "unit": "mgA/ mL"}, {"measurement": "precipitation of sertraline", "setting": "[2]; safflower oil solution added to phosphate buffered saline", "value": "little or no precipitation"}, {"measurement": "precipitation of sertraline", "setting": "[2]; safflower oil vehicle, in the presence of 0.1N HCl", "value": 81, "unit": "%"}, {"measurement": "Equilibrium solubility in Capmul-®MCM", "setting": "capmul-mcm", "value": ">50", "unit": "mgA/ml"}, {"measurement": "Equilibrium solubility in Captex® 200", "setting": "captex 200", "value": ">50", "unit": "mgA/ml"}, {"measurement": "Equilibrium solubility in Migloyol® 810", "setting": "miglyol 810", "value": ">50", "unit": "mgA/ml"}, {"measurement": "Equilibrium solubility in Oleic acid", "setting": "oleic acid", "value": ">50", "unit": "mgA/ml"}, {"measurement": "Equilibrium solubility in Olive oil", "value": ">50", "unit": "mgA/ml"}, {"measurement": "Equilibrium solubility in Safflower oil", "value": ">50", "unit": "mgA/ml"}, {"measurement": "solubility", "setting": "physchem; polysorbate-80, organic solvent or mixture", "value": "~102", "unit": "mg/mL"}]}, {"molecule": "CN[C@H]1CC[C@@H](c2ccc(Cl)c(Cl)c2)c2ccccc21", "note": "[Hydrochloride, sertraline hydrochloride]", "values": [{"measurement": "Solubility in Polysorbate-80", "setting": "[3]", "value": "<14", "unit": "mgA/ml"}, {"measurement": "Equilibrium solubility in Olive oil", "value": "<0.01 (below detection limit) mgA/ml"}, {"measurement": "Equilibrium solubility in Safflower oil", "value": "<0.01 (below detection limit) mgA/ml"}, {"measurement": "solubility", "setting": "physchem; capmul-mcm, organic solvent or mixture, Solubility in Capmul-MCM", "value": "~45", "unit": "mg/mL"}, {"measurement": "solubility", "setting": "physchem; safflower oil, organic solvent or mixture, Solubility in Safflower Oil", "value": "< 9", "unit": "mg/mL"}]}, {"molecule": "CN[C@H]1CC[C@@H](c2ccc(Cl)c(Cl)c2)c2ccccc21", "note": "[sertraline]", "values": [{"measurement": "half-time for absorption", "setting": "[4]", "value": "less than 27.7 minutes"}, {"measurement": "Tmax", "setting": "[5]", "value": "6 to 7", "unit": "h"}]}, {"molecule": "sertraline acetate", "values": [{"measurement": "appearance of saturated solution at physiological chloride concentrations", "setting": "[6]", "value": "thick pasty solid which does not flow"}]}, {"molecule": "sertraline lactate", "values": [{"measurement": "appearance of saturated solution at physiological chloride concentrations", "setting": "[6]", "value": "thick pasty solid which does not flow"}]}]}
